We go through seven compounds from US5166374A, “Bile acid derivatives, processes for the preparation thereof and pharmaceutical compositions containing them” (Giuliani S.p.A., priority 1989, dated 1992).

In brackets after ≈: the same amount, converted by molar mass. Entries after “also recorded” stand apart in the source; their conditions may differ. Where two headings read alike, the source gives them in different places.

The nature of series [1]: critical micellar concentration (CMC), detergency. It counts as physicochemical. The method, then: -critical micellar concentration (CMC) or "detergency",
(§1) were evaluated according to conventional methods. Critical micellar concentration.
comparison with UDCA, GUDCA and TUDCA

The subject of series [2] is bile flow and biliary secretion. Nature of the series: effect on bile flow and biliary lipid secretion when administered i.v. to rat. Format: in vivo. The settings on record: for SMAB (mean maximum biliary secretion) / SMFL (mean maximum biliary lipid secretion) / SMVo (mean maximum bile flow) / SMxol (mean maximum biliary lipid secretion): rat, i.v., Table II. The source says:
Effect of 24-ISOP on bile flow and biliary
SVo = mean maximum bile flow.
SM = mean maximum biliary lipid secretion.

Series [3] is described as follows: lipophilicity (K' from retention times on C18 HPLC). Format: physicochemical. The settings on record: for rK' C-18 (relative values): Table III. The source says: K' = calculated from retention times (t) on C18 HPLC according to
where to = time of unretained solvent, under the following

A short description of a further series: acidity constant (pKa). It counts as physicochemical. The method, then: as §1
The nature of another series: solubility in water. It counts as physicochemical. The settings on record: for solubility: water.
The nature of series [4]: liver uptake, biliary secretion and metabolism after intravenous administration. It counts as in vivo.
Series [5] can be described thus: critical micellar pH (CMpH). Format: physicochemical. How it is done: as §1
The next series concerns bile flow. Nature of the series: choleretic effect after i.v. or i.d. administration. It counts as in vivo.
Series [6] can be described thus: intestinal absorption, biliary recovery and metabolism after intraduodenal administration. It counts as in vivo.
Setting [7] is: Table I, calculated from retention times on C18 HPLC, CH3OH/KH2PO4 0.01 M 130/70 v/v, pH = 7, read-out: K' (converted).

With `C[C@H](CCC(=O)O)[C@H]1CC[C@H]2[C@@H]3[C@@H](O)C[C@@H]4C[C@H](O)CC[C@]4(C)[C@H]3C[C@H](O)[C@]12C` [UCA, ursocholic], in series [1] (Table III), the CMC came to 60 mmol/L.

On to `C[C@H](CCC(=O)NCCS(=O)(=O)O)[C@H]1CC[C@H]2[C@@H]3[C@@H](O)C[C@@H]4C[C@H](O)CC[C@]4(C)[C@H]3CC[C@]12C` [TUDCA, tauroursodeoxycholic acid], for which, in series [2], the “SMAB (mean maximum biliary secretion)” value turned out to be 3.40 µmol/min/kg, the “SMFL (mean maximum biliary lipid secretion)” value (shortened to “SMFL”) was found to be 0.18 µmol/min/kg, the “SMVo (mean maximum bile flow)” value amounted to 36 µL/min/kg and the “SMxol (mean maximum biliary lipid secretion)” value (“SMxol” below) came to 0.014 µmol/min/kg. For the same compound, the chromatographic logD in [3] (setting [7]) is -0.00877. This compound displayed a CMC in [1] (Table I) of 8 mmol/L.

Turning to `C[C@H](CCC(=O)CCC(=O)O)[C@H]1CC[C@H]2[C@@H]3[C@@H](O)C[C@@H]4C[C@H](O)CC[C@]4(C)[C@H]3CC[C@]12C` [Example 24-PUDCA], the pKa in “acidity constant (pKa)” (pKa) amounted to 3.9. This compound showed a solubility in “solubility in water” (water solubility) of 13 µM (≈ 5.83 µg/mL). Besides, in [3], the “rK' C-18 (relative values)” value is given as 0,44. For the same compound, in series [1] (Table III), the CMC is 9 mmol/L.

Regarding `C[C@H](CCC(=O)O)[C@H]1CC[C@H]2[C@@H]3[C@@H](O)C[C@@H]4C[C@H](O)CC[C@]4(C)[C@H]3CC[C@]12C` [UDCA, ursodeoxycholic, reference compound], the pKa in “acidity constant (pKa)” (Acidity constant, read-out: pKa value) stood at 6; in “acidity constant (pKa)” (Table I) it was 5.06; in the series “acidity constant (pKa)” (Table III), 5. Besides, the metabolites / conjugation entry in [4] (in vivo, iv) is “completely transformed into its conjugated form, tauroursodexycholic acid and to less extent into glycoursodeoxycholic acid”. The “SMAB (mean maximum biliary secretion)” value in [2] was 3.02 µmol/min/kg. In [2], the “SMFL” value amounted to 0.227 µmol/min/kg. In series [2], the “SMVo (mean maximum bile flow)” value stood at 60 µL/min/kg. Besides, in [2], the “SMxol” value came out at 0.022 µmol/min/kg. Besides, the “solubility (in words)” value in “solubility in water” is on record as “low solubility at low pH”. The solubility in “solubility in water” (Table III, read-out: water solubility) turned out to be 19 µM (≈ 7.46 µg/mL); in “solubility in water” (Table I, read-out: Solubility) it was 9 µM (≈ 3.53 µg/mL). Further, the chromatographic logD in [3] (setting [7]) is 0.563. The “rK' C-18 (relative values)” value in series [3] is reported as 0,4. The CMC in series [1] (Table I) and in series [1] (Table III) was 19 mmol/L throughout.

As for `C[C@H](CCC(=O)CCC(=O)O)[C@H]1CC[C@H]2[C@@H]3[C@@H](O)C[C@@H]4C[C@H](O)CC[C@]4(C)[C@H]3CC[C@]12C` [Example 24-ISOP, 3α, 7β-dihydroxy-24-oxo-5β-cholan-27-oic acid], the pKa in the series “acidity constant (pKa)” (pKa value) came out at 4.2. Further, the disappearance from bile result in [4] (in vivo) is “disappears from bile with a kinetic similar to conjugate forms of UDCA and faster than UDCA”. For the same compound, in series [4] (in vivo, iv), the “kinetic of the biliary secretion” value was “very fast in comparison with UDCA and more similar to tauroursodeoxycholic acid”. In series [4] (intravenous), the metabolites / conjugation entry is recorded as “no significant metabolites are present” and the recovery in bile result is listed as “completely recovered in bile with a rapid kinetic”. The “critical micellar pH (in words)” value in series [5] is “low critical micellar pH; also recorded: soluble when present in micellar form at a pH lower than UDCA (low CMpH)”. In addition, in series [2] (intravenous), the “effect on bile flow (in words)” value was “great effect on bile flow, higher than that of UDCA and its conjugated forms”; the “transport and secretion of cholesterol and phospholipids (in words)” value was “no significative differences”. Also, in [2], the “SMAB (mean maximum biliary secretion)” value was determined as 2.62 µmol/min/kg, the “SMFL” value was determined as 0.21 µmol/min/kg, the “SMVo (mean maximum bile flow)” value amounted to 87 µL/min/kg and the “SMxol” value came out at 0.020 µmol/min/kg. Moreover, the solubility in the series “solubility in water” (Solubility) turned out to be 20 µM (≈ 8.97 µg/mL). In [3] (c18 hplc, ch3oh/kh2po4, pH 7), this compound had a chromatographic logD of 0.326. The CMC in series [1] (Table I) stood at 9 mmol/L. Besides, the choleretic effect entry in the series with bile flow is reported as “high choleretic effect, higher than that of UDCA”. Also, in [6] (in vivo), the metabolites entry is “no major metabolites are present”. In addition, the recovery in bile result in series [6] (intraduodenal) is “significantly higher than that of glycoursodeoxycholic and similar to UDCA and TUDCA”.

For `C[C@H](CCC(=O)CCC(=O)O)[C@H]1CC[C@H]2[C@@H]3[C@@H](O)C[C@@H]4C[C@H](O)CC[C@]4(C)[C@H]3C[C@H](O)[C@]12C` [Example 24-PUCA, 3α, 7β, 12α-Trihydroxy-24-oxo-5β-cholan-27-oic acid], the “pKa (in words)” value in the series “acidity constant (pKa)” is “lower to than that of the natural analogues UCA and UDCA and similar to that of 24-PUDCA”. This compound also had a pKa in the series “acidity constant (pKa)” (pKa) of 3.85. The “critical micellar pH (in words)” value in series [5] is recorded as “low CMpH value”. In “solubility in water”, the “solubility (in words)” value was “very soluble also in protonated form”; the “water solubility relative to UDCA and 24-PUDCA” value was “about 100 times”. The same compound returned a solubility in “solubility in water” (water solubility) of 1800 µM (≈ 836 µg/mL). Besides, in [3], the “lipophilicity (in words)” value is “intermediate between UCA and UDCA”; the “rK' C-18 (relative values)” value was 0,20. In addition, the “CMC / detergency (in words)” value in series [1] is “mild detergency”. This compound gave a CMC in [1] (Table III) of 28 mmol/L.

With `C[C@H](CCC(=O)NCC(=O)O)[C@H]1CC[C@H]2[C@@H]3[C@@H](O)C[C@@H]4C[C@H](O)CC[C@]4(C)[C@H]3CC[C@]12C` [GUDCA, glycoursodeoxycholic acid], in series [2], the “SMAB (mean maximum biliary secretion)” value turned out to be 2.10 µmol/min/kg, the “SMFL” value amounted to 0.39 µmol/min/kg, the “SMVo (mean maximum bile flow)” value is 40 µL/min/kg and the “SMxol” value was found to be 0.028 µmol/min/kg. Further, the “solubility (in words)” value in the series “solubility in water” is “low solubility at low pH”. Moreover, the solubility in the series “solubility in water” (Table I, read-out: Solubility) was 3 µM (≈ 1.35 µg/mL). Moreover, in series [3] (setting [7]), the chromatographic logD is 0.0253. For the same compound, the CMC in series [1] (Table I) is 12 mmol/L.

For orientation: pKa means the pH at which an ionisable group is half protonated. One may read the solubility as the concentration that dissolves in the medium under given conditions.
